Laboratory results reported in patent US6355799B1, “Substituted benzene compounds, process for their preparation, and herbicidal and defoliant compositions containing them” (ISK Americas Incorporated, priority 1997, dated 2002).

Columns and labels:
Format in all cases: in vivo
[1] = test system: redroot pigweed (Amaranthus retroflexus, AMARE); test: Pre-emerge test, greenhouse herbicide activity screening; conditions: pre-emerge, rated 14 days after application, 0 = no damage, 100 = complete death
Procedure, shortened: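 Plants grown in 10 cm pots of sandy loam mix received acetone-dissolved compounds through a moving flat-fan nozzle. Doses ranged from 15 to 1000 g ai/ha. Pre-emerge pots were seeded one day earlier, post-emerge pots 8–21 days earlier. Fourteen days on, each pot was graded 0–100 for damage.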

[2] = test system: barnyardgrass (Echinochloa crus-galli, ECHCG); test: as above; conditions: pre-emerge, rated 14 days after application, 0 = no damage, 100 = complete death
Procedure, shortened: (§1)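 Herbicidal damage is scored 0 (none) to 100 (complete plant death) two weeks after a simulated field spray. Rates span 15–1000 g ai/ha, delivered in acetone at 187 l/ha. For post-emergence treatments, plants have 2–3 leaves and the spray carries 0.25% v/v non-ionic surfactant.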

[3] = test system: green foxtail (Setaria viridis, SETVI); test: as above; conditions: pre-emerge, rated 14 days after application, 0 = no damage, 100 = complete death
Procedure, shortened: as §1

[4] = test system: ivyleaf morningglory (Ipomoea hederacea, IPOHE); test: as above; conditions: pre-emerge, rated 14 days after application, 0 = no damage, 100 = complete death
Procedure, shortened: as §1

[5] = test system: johnsongrass (Sorghum halepense, SORHA); test: as above; conditions: pre-emerge, rated 14 days after application, 0 = no damage, 100 = complete death
Procedure, shortened: as §1

[6] = test system: lambsquarters (Chenopodium album, CHEAL); test: as above; conditions: pre-emerge, rated 14 days after application, 0 = no damage, 100 = complete death
Procedure, shortened: as §1

[7] = test system: large crabgrass (Digitaria sanguinalis, DIGSA); test: as above; conditions: pre-emerge, rated 14 days after application, 0 = no damage, 100 = complete death
Procedure, shortened: as §1

[8] = test system: sicklepod (Cassia obtusifolia, CASOB); test: as above; conditions: pre-emerge, rated 14 days after application, 0 = no damage, 100 = complete death
Procedure, shortened: as §1

[9] = test system: velvetleaf (Abutilon theophrasti, ABUTH); test: as above; conditions: pre-emerge, rated 14 days after application, 0 = no damage, 100 = complete death
Procedure, shortened: as §1

[10] = test system: field corn (Zea mays L., var. Dekalb 535, CORN); test: Pre-emerge test, crop safety; conditions: pre-emerge, rated 14 days after application, 0 = no damage, 100 = complete death
Procedure, shortened: (§2)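 Sandy loam pots; pre-emerge: sown 1 d pre-spray, surface-watered after, then bottom-watered. Post-emerge: sown 8–21 d before, 2–3 leaf stage, + 0.25% v/v NIS, bottom-watered. Acetone, 187 l/ha track spray, 15–1000 g ai/ha. 0–100 injury score, day 14.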

[11] = test system: upland rice (Oryza sp., var. Tebonnet, RICE); test: Pre-emerge test, crop safety; conditions: pre-emerge, rated 14 days after application, 0 = no damage, 100 = complete death
Procedure, shortened: as §2

[12] = test system: barnyardgrass (Echinochloa crus-galli, ECHCG); test: Post-emerge test, greenhouse herbicide activity screening; conditions: phytotoxicity rating 0-100 (0 no damage, 100 complete death), 14 days after application
Procedure, shortened: (§3)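 Compounds in acetone were track-sprayed at 187 l/ha, 15–1000 g ai/ha, onto sandy loam pots. Pre-emerge seeds were sown one day before spraying, with surface watering afterwards. Post-emerge plants were at the 2–3 leaf stage and sprayed with 0.25% v/v non-ionic surfactant. Injury was rated 0–100 at 14 days.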

[13] = test system: green foxtail (Setaria viridis, SETVI); test: as above; conditions: phytotoxicity rating 0-100 (0 no damage, 100 complete death), 14 days after application
Procedure, shortened: as §3

[14] = test system: ivyleaf morningglory (Ipomoea hederacea, IPOHE); test: as above; conditions: phytotoxicity rating 0-100 (0 no damage, 100 complete death), 14 days after application
Procedure, shortened: as §3

[15] = test system: johnsongrass (Sorghum halepense, SORHA); test: as above; conditions: phytotoxicity rating 0-100 (0 no damage, 100 complete death), 14 days after application
Procedure, shortened: as §3

[16] = test system: lambsquarters (Chenopodium album, CHEAL); test: as above; conditions: phytotoxicity rating 0-100 (0 no damage, 100 complete death), 14 days after application
Procedure, shortened: as §3

[17] = test system: large crabgrass (Digitaria sanguinalis, DIGSA); test: as above; conditions: phytotoxicity rating 0-100 (0 no damage, 100 complete death), 14 days after application
Procedure, shortened: as §3

[18] = test system: redroot pigweed (Amaranthus retroflexus, AMARE); test: as above; conditions: phytotoxicity rating 0-100 (0 no damage, 100 complete death), 14 days after application
Procedure, shortened: as §3

[19] = test system: velvetleaf (Abutilon theophrasti, ABUTH); test: as above; conditions: phytotoxicity rating 0-100 (0 no damage, 100 complete death), 14 days after application
Procedure, shortened: as §3

[20] = test system: field corn (Zea mays L., var. Dekalb 535, CORN); test: Post-emerge test, crop safety; conditions: phytotoxicity rating 0-100 (0 no damage, 100 complete death), 14 days after application
Procedure, shortened: as §1

[21] = test system: upland rice (Oryza sp., var. Tebonnet, RICE); test: Post-emerge test, crop safety; conditions: phytotoxicity rating 0-100 (0 no damage, 100 complete death), 14 days after application
Procedure, shortened: as §1

## Cn1c(C(F)(F)F)cc(=O)n(-c2c(F)cc(Cl)c(OCC#N)c2NC(=O)C(F)(F)F)c1=O [2-11]
[1]; 63 g ai/ha
  Pre-emerge Herbicidal Activity AMARE (phytotoxicity rating, scale 0-100): 30
[1]; 250 g ai/ha
  Pre-emerge Herbicidal Activity AMARE (phytotoxicity rating, scale 0-100): 100
[2]; 63 g ai/ha
  Pre-emerge Herbicidal Activity ECHCG (phytotoxicity rating, scale 0-100): 0
[2]; 250 g ai/ha
  Pre-emerge Herbicidal Activity ECHCG (phytotoxicity rating, scale 0-100): 40
[3]; 63 g ai/ha
  Pre-emerge Herbicidal Activity SETVI (phytotoxicity rating, scale 0-100): 0
[3]; 250 g ai/ha
  Pre-emerge Herbicidal Activity SETVI (phytotoxicity rating, scale 0-100): 100
[4]; 63 g ai/ha
  Pre-emerge Herbicidal Activity IPOHE (phytotoxicity rating, scale 0-100): 70
[4]; 250 g ai/ha
  Pre-emerge Herbicidal Activity IPOHE (phytotoxicity rating, scale 0-100): 100
[5]; 63 g ai/ha
  Pre-emerge Herbicidal Activity SORHA (phytotoxicity rating, scale 0-100): 0
[5]; 250 g ai/ha
  Pre-emerge Herbicidal Activity SORHA (phytotoxicity rating, scale 0-100): 50
[6]; 63 g ai/ha
  Pre-emerge Herbicidal Activity CHEAL (phytotoxicity rating, scale 0-100): 100
[6]; 250 g ai/ha
  Pre-emerge Herbicidal Activity CHEAL (phytotoxicity rating, scale 0-100): 100
[7]; 63 g ai/ha
  Pre-emerge Herbicidal Activity DIGSA (phytotoxicity rating, scale 0-100): 0
[7]; 250 g ai/ha
  Pre-emerge Herbicidal Activity DIGSA (phytotoxicity rating, scale 0-100): 60
[8]; 63 g ai/ha
  Pre-emerge Herbicidal Activity CASOB (phytotoxicity rating, scale 0-100): 0
[8]; 250 g ai/ha
  Pre-emerge Herbicidal Activity CASOB (phytotoxicity rating, scale 0-100): 60
[9]; 63 g ai/ha
  Pre-emerge Herbicidal Activity ABUTH (phytotoxicity rating, scale 0-100): 90
[9]; 250 g ai/ha
  Pre-emerge Herbicidal Activity ABUTH (phytotoxicity rating, scale 0-100): 100
[10]; 63 g ai/ha
  Pre-emerge crop damage CORN (phytotoxicity rating, scale 0-100): 0
[10]; 250 g ai/ha
  Pre-emerge crop damage CORN (phytotoxicity rating, scale 0-100): 10
[11]; 63 g ai/ha
  Pre-emerge crop damage RICE (phytotoxicity rating, scale 0-100): 10
[11]; 250 g ai/ha
  Pre-emerge crop damage RICE (phytotoxicity rating, scale 0-100): 50
[12]; 63 g ai/ha
  Post-emerge Herbicidal Activity ECHCG: 0
[12]; 250 g ai/ha
  Post-emerge Herbicidal Activity ECHCG: 0
[13]; 63 g ai/ha
  Post-emerge Herbicidal Activity SETVI: 0
[13]; 250 g ai/ha
  Post-emerge Herbicidal Activity SETVI: 20
[14]; 63 g ai/ha
  Post-emerge Herbicidal Activity IPOHE: 50
[14]; 250 g ai/ha
  Post-emerge Herbicidal Activity IPOHE: 60
[15]; 63 g ai/ha
  Post-emerge Herbicidal Activity SORHA: 0
[15]; 250 g ai/ha
  Post-emerge Herbicidal Activity SORHA: 0
[16]; 63 g ai/ha
  Post-emerge Herbicidal Activity CHEAL: 40
[16]; 250 g ai/ha
  Post-emerge Herbicidal Activity CHEAL: 65
[17]; 63 g ai/ha
  Post-emerge Herbicidal Activity DIGSA: 0
[17]; 250 g ai/ha
  Post-emerge Herbicidal Activity DIGSA: 0
[18]; 63 g ai/ha
  Post-emerge Herbicidal Activity AMARE: 0
[18]; 250 g ai/ha
  Post-emerge Herbicidal Activity AMARE: 30
[19]; 63 g ai/ha
  Post-emerge Herbicidal Activity ABUTH: 80
[19]; 250 g ai/ha
  Post-emerge Herbicidal Activity ABUTH: 100
[20]; 63 g ai/ha
  Post-emerge Herbicidal Activity CORN (crop damage): 5
[20]; 250 g ai/ha
  Post-emerge Herbicidal Activity CORN (crop damage): 5
[21]; 63 g ai/ha
  Post-emerge Herbicidal Activity RICE (crop damage): 0
[21]; 250 g ai/ha
  Post-emerge Herbicidal Activity RICE (crop damage): 0
